Data taken from patent US20140171448A1, “USE OF NICOTINIC ACETYLCHOLINE RECEPTOR ALPHA 7 ACTIVATORS” (NOVARTIS AG, priority 2011, published 2014).

Assays:
[1] = Oral bioavailability and brain penetration in mice; assay type: in vivo; conditions: 30 μmol/kg p.o.
Protocol: Compounds were orally (30 μmol/kg) administered. Male mice (30-35g, OF1/ICstrain) were sacrificed at indicated time points after oral administration. Trunk-blood was collected in EDTA-containing tubes and the brain was removed and immediately frozen on dry ice.
To 100 μl plasma 10 μl internal standard (1.0 pmol of a compound with solubility and ionization properties similar to test compounds) was added and extracted three times with 500 μl dichloromethane. The combined extracts were then dried under a stream of nitrogen and re-dissolved in 100 μl acetonitrile/water (70% acetonitrile). Brains were weighed and homogenized in water (1:5 w/v). Two 100 μl aliquots of each homogenate+10 μl of internal standard (same standard as used for the plasma samples) were extracted three times with 500 μl dichloromethane and further processed as the plasma samples. Samples were separated on Beckmann high-performance liquid chromatography equipment system with an autosampler (Gilson 233XL).
The limit of detection (LOD), defined as the lowest concentration of the extracted standard sample with a signal to noise ratio of ˜3.

[2] = biological target: T1, human neuronal nAChR α4β2 (Homo sapiens, UniProt P17787+P43681); test: α4β2-nAChR functional assay in human epithelial cell line; assay type: cell-based
T1 construct: expressed in transfected cells; host or cells: human epithelial cell line (named a human embryonic kidney cell line)
Protocol: To assess the activity of the compound of the invention on the human neuronal nAChR α4β2, a similar functional assay is carried out using a human epithelial cell line stably expressing the human α4β2 subtype (Michelmore et al., Naunyn-Schmiedeberg's Arch.

parkinsonian primates = test: Antidyskinetic effect in parkinsonian primates (MPTP, levodopa-induced dyskinesia); assay type: in vivo, cynomolgus monkeys (Macaca fascicularis); conditions: with levodopa
Protocol: Female ovariectomized cynomolgus monkeys (Macaca fascicularis) are used in the assessment. The animals can be rendered parkinsonian by continuous infusion of 1-methyl-4-phenyl-1,2,3,6-tetrahydropyridine (MPTP) until they develop a stable parkinsonian syndrome. After recuperation, animals are treated daily with levodopa until clear and reproducible dyskinesias are developed.
Monkeys are observed through a one-way screen window in their home cage. They are observed and scored repeatedly at baseline and after a standard s.c. dose of levodopa. Locomotor activity is assessed and followed with an electronic monitoring system. Antiparkinsonian responses are evaluated by measuring the locomotor activity and a Parkinson disability scale (see Hadj Tahar A et al, Clin Neuropharmacol 2000; 23:195-202; and Samadi P et al, Neuropharmacology 2003; 45:954-963). Dyskinesias are closely monitored and scored according to a dyskinesia rating scale (also described in Hadj Tahar A et al; and Samadi P et al) every 15 minutes until the end of the effect. The doses of levodopa are chosen to induce motor activation and reproducible dyskinesia but no excessive agitation.
Monkeys are observed for at least two hours following an oral administration of vehicle. On a subsequent day, the dose of levodopa selected is tested once. The animals are observed (with measures of parkinsonian and dyskinetic scores) for the entire duration of the levodopa effect and are also monitored for locomotor activity. This provides vehicle control values as well as levodopa antiparkinsonian and dyskinesia response data for comparison with combinations of a α7-nAChR agonist/positive allosteric modulator and levodopa. The monkeys are then tested with a α7-nAChR agonist/positive allosteric modulator in combination with a fixed dose of levodopa. A suspension for oral administration of the α7-nAChR agonist/positive allosteric modulator is administered before levodopa. After each dose, the animals are observed (with measures of parkinsonian and dyskinetic scores) for the entire duration of effect and monitored for locomotor activity or any change in behavior (e.g. circling, excitement, lethargy and sleepiness).
Using this protocol, compound A-1 at a dose of 20 mg/kg was tested. Results based on five monkeys (levodopa/benserazide doses: 22.5/50 mg; 65/50 mg; 30/50 mg; 35/50 mg; and 25/50 mg) are shown in FIGS. 1-4.

T1 sequence (P43681 29-627 limits assumed): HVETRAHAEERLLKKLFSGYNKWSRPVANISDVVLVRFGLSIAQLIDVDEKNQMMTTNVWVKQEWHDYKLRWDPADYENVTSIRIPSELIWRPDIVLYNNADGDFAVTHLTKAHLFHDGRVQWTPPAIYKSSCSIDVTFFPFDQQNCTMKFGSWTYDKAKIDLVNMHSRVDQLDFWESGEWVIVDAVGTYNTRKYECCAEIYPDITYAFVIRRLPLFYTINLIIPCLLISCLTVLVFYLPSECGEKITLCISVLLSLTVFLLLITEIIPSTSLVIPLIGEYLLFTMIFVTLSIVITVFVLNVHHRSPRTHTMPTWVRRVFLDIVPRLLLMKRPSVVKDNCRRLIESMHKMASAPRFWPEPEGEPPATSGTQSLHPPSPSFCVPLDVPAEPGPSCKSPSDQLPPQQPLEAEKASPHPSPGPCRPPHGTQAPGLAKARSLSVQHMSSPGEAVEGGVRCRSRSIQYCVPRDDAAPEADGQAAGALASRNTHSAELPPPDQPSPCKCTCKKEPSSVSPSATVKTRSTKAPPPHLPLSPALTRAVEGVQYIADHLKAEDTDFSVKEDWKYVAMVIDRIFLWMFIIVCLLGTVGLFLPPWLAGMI
T1 sequence (P17787 26-502): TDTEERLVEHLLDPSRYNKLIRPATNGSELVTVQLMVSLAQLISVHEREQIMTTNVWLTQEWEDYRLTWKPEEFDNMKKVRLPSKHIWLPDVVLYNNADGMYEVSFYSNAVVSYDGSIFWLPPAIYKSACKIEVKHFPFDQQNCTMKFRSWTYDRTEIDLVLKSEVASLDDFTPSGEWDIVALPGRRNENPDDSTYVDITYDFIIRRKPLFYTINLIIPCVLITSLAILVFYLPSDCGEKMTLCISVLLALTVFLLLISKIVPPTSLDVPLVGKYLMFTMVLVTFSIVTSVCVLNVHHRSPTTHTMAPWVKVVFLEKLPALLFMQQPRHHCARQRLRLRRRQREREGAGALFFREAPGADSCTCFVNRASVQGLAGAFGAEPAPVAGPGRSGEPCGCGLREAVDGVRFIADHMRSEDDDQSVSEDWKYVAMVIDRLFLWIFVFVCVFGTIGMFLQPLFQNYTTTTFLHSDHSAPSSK

In the case of `C[C@H](OC(=O)N[C@@H]1CN2CCC1CC2)c1ccccc1F` [A-1, (S)-(1-aza-bicyclo[2.2.2]oct-3-yl)-carbamic acid (S)-1-(2-fluoro-phenyl)-ethyl ester], the “Brain (pmoles/g ± SD)” value ([1]; 4 hour) is reported as 101.6 ± 39.6 pmol/g, the concentration at 0.5 h ([1]; male, OF1/IC, mouse, plasma, po, 0.5 hour, read-out: Plasma (pmoles/ml ± SD)) is reported as 635 ± 261 pmol/mL and the concentration at 1 h ([1]; male, OF1/IC, mouse, plasma, po, 1 hour, read-out: Plasma (pmoles/ml ± SD)) is reported as 685 ± 340 pmol/mL. For the same compound, the concentration at 2 h ([1]; male, OF1/IC, mouse, plasma, po, 2 hour, read-out: Plasma (pmoles/ml ± SD)) was 168 ± 91.3 pmol/mL, the concentration at 4 h ([1]; male, OF1/IC, mouse, plasma, po, 4 hour, read-out: Plasma (pmoles/ml ± SD)) was 85 ± 54.3 pmol/mL and the concentration at 6 h ([1]; male, OF1/IC, mouse, plasma, po, 6 hour, read-out: Plasma (pmoles/ml ± SD)) was 29.5 ± 13.8 pmol/mL. The concentration at 24 h ([1]; male, OF1/IC, mouse, plasma, po, 24 hour, read-out: Plasma (pmoles/ml ± SD)) was 3.8 ± 0.6 pmol/mL, the EC50 [2] was greater than 100 µM and the “effect on antiparkinsonian activity of levodopa” value (parkinsonian primates) was “does not lower the antiparkinsonian activity of levodopa”. For the same compound, the “effect on duration of the antiparkinsonian activity of levodopa” value (parkinsonian primates) was “significantly increases the duration of the antiparkinsonian activity seen for levodopa administration”, the “effect on levodopa-induced dyskinesia” value (parkinsonian primates) was “significantly reduces levodopa-induced dyskinesia” and the “effect on onset of action of levodopa” value (parkinsonian primates) was “does not delay the onset of action of levodopa”.
